Measured values taken from US20140235616A1, “PYRAZOLOQUINOLINONE DERIVATIVES, PREPARATION THEREOF AND THERAPEUTIC USE THEREOF” (SANOFI, priority 2011, published 2014).

Experiments:
HUVEC cells = assay: Test of in vitro proliferation of HUVEC cells induced with FGF-2; conditions: Homo sapiens, read-out: HUVEC Proliferation IC50 (M)
Description: Test of In Vitro Proliferation of HUVEC Cells Induced with Fibroblast Growth Factor 2 (FGF-2).
After incubation for 48 hours, the medium is aspirated and replaced with the deprivation medium RPMI1640 mentioned previously. A second stimulation is then performed. The cells are again incubated at 37° C. in the presence of CO2. After incubation for 72 hours, the medium is again aspirated and 100 μl of Cell Titer-GLO™ Luminescent Cell Viability Assay (Promega, G7571) are added over 10 minutes. The amount of ATP present in the cells, measured using a luminometer, is proportional to the number cells per well corresponding to the cell proliferation.

human MetAP2 = target: T1, human MetAP2 (Homo sapiens, UniProt P50579); assay: MetAP2 enzymatic screening test (isolated enzyme, Met-Pro-Arg-pNa substrate, absorbance at 405 nm); type: biochemical; conditions: read-out: % inhibition hMETAP2 at 100 nM
T1 construct: made in house; host or cells: Sf9 insect cells (baculovirus)
Description: The compounds according to the invention underwent biochemical studies in order to determine their capacity to inhibit the enzyme methionine-aminopeptidase2 (enzymatic test on isolated enzyme).
MetAP2 Enzymatic Screening Test
For the enzymatic test, human MetAP2 protein was obtained from a culture supernatant of insect cells (sf9) infected with MetAP2 recombinant baculovirus.
Before performing the experiment, dialysis of the MetAP2 supernatant is performed over 24 hours at 4° C. in a buffer (10 mM Hepes, 100 mM KCl, 10% glycerol, pH 7.4) in the presence of EDTA (1 mM) over the first 12 hours.
The dialysis supernatant is recovered and manganese, used as cofactor, is added to a final concentration of 300 μM.
The enzymatic test is a test in two steps.
Consequently, the second step consists in reacting the peptides cleaved in the preceding step with a second peptidase in order to release the chromophore.

T1 sequence (P50579 whole entry): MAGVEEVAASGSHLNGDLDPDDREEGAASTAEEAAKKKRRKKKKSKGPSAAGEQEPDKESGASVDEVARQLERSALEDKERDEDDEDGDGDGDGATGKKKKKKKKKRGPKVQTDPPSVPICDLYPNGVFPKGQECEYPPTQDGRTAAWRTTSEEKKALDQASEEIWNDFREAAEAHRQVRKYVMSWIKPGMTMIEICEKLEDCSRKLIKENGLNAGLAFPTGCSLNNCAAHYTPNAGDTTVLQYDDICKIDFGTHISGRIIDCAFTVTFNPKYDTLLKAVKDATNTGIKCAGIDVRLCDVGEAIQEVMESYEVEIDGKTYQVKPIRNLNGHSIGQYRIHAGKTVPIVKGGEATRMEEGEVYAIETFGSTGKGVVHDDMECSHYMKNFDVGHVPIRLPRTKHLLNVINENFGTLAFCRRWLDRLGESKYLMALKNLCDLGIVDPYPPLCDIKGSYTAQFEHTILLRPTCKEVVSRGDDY

Cc1cc(-c2ccc3c4[nH]ncc4c(=O)n(CC(F)(F)F)c3c2)ccn1 [Compound 186, 7-(2-methylpyrid-4-yl)-5-(2,2,2-trifluoroethyl)-1,5-dihydro-4H-pyrazolo[4,3-c]quinolin-4-one]
IC50 (HUVEC cells): 3.6e-07 M | inhibition at 0.1 µM (human MetAP2): 43%
